From publication PMC12848717, “Discovery of Encrypted Peptides in a Human Matrix Metallopeptidase” (JACS Au, 2025)
Square brackets hold non-standard residues; d marks the D form. Peptide text beside a SMILES is read from it.

Key:
[1] = system: sheep red blood cells (SRBCs)
A. baumannii ATCC 19606 [2] = assay: time-kill (killing kinetic) assay; format: cell-based; conditions: Fig 7D
[3] = system: human epidermoid carcinoma cells (A431); format: cell-based; conditions: 72 h, 100 μM
Procedure: (§1) Cell viability remained above 70% even at the highest tested concentrations after 72 h of incubation.

[4] = system: human primary dermal fibroblasts (HDF); format: cell-based
Procedure: as §1

[5] = system: human immortalized keratinocytes (HaCaT); format: cell-based
Procedure: as §1

[6] = system: S. epidermidis ATCC 35984; assay: time-kill (killing kinetic) assay; format: cell-based; conditions: Fig 7D
A. baumannii ATCC 19606 [7] = assay: murine skin abscess infection model; format: in vivo, mouse (female CD-1); conditions: after 4 days; single topical dose at MIC ([…] μM r(P)YLL19, 32 μM D(P)YLL19) 2 h postinfection; CFU of homogenized skin; n = 6
Procedure: Six-week-old female CD-1 mice (Charles River, stock number: 18679700-022) were anesthetized with isoflurane, and the dorsal skin was shaved. A superficial linear abrasion was made using a sterile needle. A 20 μL aliquot of A. baumannii ATCC 19606, grown in LB medium to an optical density at 600 nm (OD600) of 0.5 and then washed twice with sterile PBS (pH 7.4; 9391 g for 2 min), was applied to the abraded area at a final concentration of 3.67 × 10^6 CFU mL^-1. Peptides and antibiotics were diluted in sterile water to their respective MICs and topically applied to the infection site 2 h postinfection. Untreated control mice received 20 μL of sterile PBS. At 2 and 4 days postinfection, animals were euthanized, and the wounded infected skin area was aseptically and uniformly excised. Tissue was homogenized using a bead beater (25 Hz for 20 min), serially diluted 10-fold, and plated on MacConkey agar plates for CFU quantification. Each treatment group included six mice (n = 6), with mice housed individually to prevent cross-contamination. […] Two independent experiments were conducted, each with 3 mice per treatment group. Statistical significance was assessed using one-way ANOVA followed by Dunnett's post hoc test after log10 transformation of CFU counts.

CC[C@@H](C)[C@@H](NC(=O)[C@@H](CCCNC(=N)N)NC(=O)[C@@H](Cc1ccccc1)NC(=O)[C@H](NC(=O)[C@@H](CC(C)C)NC(=O)[C@@H](Cc1c[nH]cn1)NC(=O)[C@@H](CCCCN)NC(=O)[C@@H](CCCCN)NC(=O)[C@@H](CCCNC(=N)N)NC(=O)[C@@H](Cc1c[nH]c2ccccc12)NC(=O)[C@@H](CCCNC(=N)N)NC(=O)CNC(=O)[C@@H](CC(C)C)NC(=O)[C@@H](CC(C)C)NC(=O)[C@@H](CC(C)C)NC(=O)[C@@H](Cc1ccc(O)cc1)NC(=O)[C@H]1CCCN1)[C@H](C)O)C(=O)N[C@H](CC(C)C)C(=O)N[C@H](CC(N)=O)C(=O)N[C@H](CC(C)C)C(=O)O [D(P)YLL19] (H-[dP][dY][dL][dL][dL]G[dR][dW][dR][dK][dK][dH][dL][dT][dF][dR][dI][dL][dN][dL]-OH; N-terminus and C-terminus assumed)
hemolytic activity [1]: no hemolytic activity | time to complete bacterial eradication, peptide combined with colistin (A. baumannii ATCC 19606 [2]): ≤ 15 min | cell viability [3]: above 70% | reduction in viability [4]: 25–30% | cell viability ([4]; 72 h, 100 μM): above 70% | reduction in viability [5]: 25–30% | cell viability ([5]; 72 h, 100 μM): above 70% | time to complete bacterial eradication, peptide combined with colistin or polymyxin B [6]: ≤ 15 min | reduction in bacterial burden (A. baumannii ATCC 19606 [7]): 3 to 4 orders of magnitude
